Source: ChEMBL document CHEMBL3872207, “Aromatic heterocyclic esters of podophyllotoxin exert anti-MDR activity in human leukemia K562/ADR cells via ROS/MAPK signaling pathways” (Eur J Med Chem, 2016)

Assays:
[1] = Downregulation of CDK1 expression in human K562/ADR cells assessed as ratio of CDK1 to beta-actin level at 0.1 uM measured after 48 hrs by Western blot analysis (reference value: 0.53); type: functional, cell-based
[2] = target: T1, c-Jun N-terminal kinase, JNK (Homo sapiens) (UniProt P45983+P53779+P45984); assay: Induction of JNK phosphorylation in human K562/ADR cells assessed as ratio of phosphorylated JNK to beta-actin level at 0.1 uM pretreated with MAPK inhibitor SP600125 for 1 hr followed by compound addition after 48 hrs by Western blotting method (reference value: 0.46); type: cell-based
[3] = test system: K562/Adr; assay: Induction of apoptosis in human K562/ADR cells assessed as necrotic cells at 0.1 uM pretreated with ROS scavenger NAC for 2 hrs followed by compound addition after 48 hrs by Annexin V-APC/7-AAD staining based flow cytometry (reference value: 0.26%); type: functional
[4] = test system: K562/Adr; assay: Induction of apoptosis in human K562/ADR cells assessed as ratio of cleaved caspase-3 to beta-actin level at 0.1 uM pretreated with MAPK inhibitor SB203580 for 1 hr followed by compound addition measured after 48 hrs by Western blot analysis (reference value: 0.06); type: functional
[5] = Downregulation of CDK1 expression in human K562/ADR cells assessed as ratio of CDK1 to beta-actin level at 0.1 uM pretreated with ROS scavenger NAC for 2 hrs followed by compound addition measured after 48 hrs by Western blot analysis (reference value: 0.53); type: functional, cell-based
[6] = target: T1, c-Jun N-terminal kinase, JNK (Homo sapiens); assay: Induction of JNK phosphorylation in human K562/ADR cells assessed as ratio of phosphorylated JNK to beta-actin level at 0.1 uM pretreated with ROS scavenger NAC for 2 hrs followed by compound addition after 48 hrs by Western blotting method (reference value: 0.46); type: cell-based
[7] = Downregulation of CyclinA expression in human K562/ADR cells assessed as ratio of CyclinA to beta-actin level at 0.1 uM pretreated with MAPK inhibitor SP600125 for 1 hr followed by compound addition measured after 48 hrs by Western blot analysis (reference value: 0.64); type: functional, cell-based
[8] = test system: K562/Adr; assay: Induction of apoptosis in human K562/ADR cells assessed as ratio of cleaved PARP to beta-actin level at 0.1 uM pretreated with MAPK inhibitor U0126 for 1 hr followed by compound addition measured after 48 hrs by Western blot analysis (reference value: 0.04); type: functional
[9] = Downregulation of CDK2 expression in human K562/ADR cells assessed as ratio of CDK2 to beta-actin level at 0.1 uM pretreated with MAPK inhibitor SP600125 for 1 hr followed by compound addition measured after 48 hrs by Western blot analysis (reference value: 0.65); type: functional, cell-based
[10] = Downregulation of P-gp expression in human K562/ADR cells assessed as ratio of P-gp to beta-actin level at 0.1 uM pretreated with MAPK inhibitor U0126 for 1 hr followed by compound addition measured after 48 hrs by Western blot analysis (reference value: 0.63); type: functional, cell-based
[11] = Downregulation of CDK2 expression in human K562/ADR cells assessed as ratio of CDK2 to beta-actin level at 0.1 uM pretreated with ROS scavenger NAC for 2 hrs followed by compound addition measured after 48 hrs by Western blot analysis (reference value: 0.65); type: functional, cell-based
[12] = target: T1, c-Jun N-terminal kinase, JNK (Homo sapiens); assay: Induction of JNK phosphorylation in human K562/ADR cells assessed as ratio of phosphorylated JNK to beta-actin level at 0.1 uM measured after 48 hrs by Western blotting (reference value: 0.46); type: cell-based
[13] = test system: K562/Adr; assay: Induction of apoptosis in human K562/ADR cells assessed as viable cells at 0.1 uM pretreated with MAPK inhibitor U0126 for 1 hr followed by compound addition after 48 hrs by Annexin V-APC/7-AAD staining based flow cytometry (reference value: 95.31%); type: functional; conditions: read-out: Activity
[14] = test system: K562/Adr; assay: Induction of apoptosis in human K562/ADR cells assessed as early apoptotic cells at 0.1 uM pretreated with MAPK inhibitor SB203580 for 1 hr followed by compound addition after 48 hrs by Annexin V-APC/7-AAD staining based flow cytometry (reference value: 2.74%); type: functional; set-up: scale not given: the % may be the effect or the level left
[15] = test system: K562/Adr; assay: Induction of ERK1/2 phosphorylation in human K562/ADR cells assessed as ratio of phosphorylated ERK1/2 to beta-actin level at 0.1 uM pretreated with MAPK inhibitor SB203580 for 1 hr followed by compound addition after 48 hrs by Western blotting method (reference value: 0.22); type: cell-based

`COc1cc([C@@H]2c3cc4c(cc3[C@H](OC(=O)c3ccco3)[C@H]3COC(=O)[C@H]23)OCO4)cc(OC)c1OC` showed a Ratio [1] of 0.17, a Ratio [2] of 0.05 and an Activity [3] of 2.14%. It also gave a Ratio [4] of 0.52, a Ratio [5] of 0.49 and a Ratio [6] of 0.51. The Ratio [7] was 0.31, the Ratio [8] was 0.43 and the Ratio [9] was 0.22. It also gave a Ratio [10] of 0.35, a Ratio [11] of 0.43 and a Ratio [12] of 0.83. For the same compound, the viability at 0.1 µM [13] was 56.5%, the Activity [14] was 6.84% and the Ratio [15] was 0.15.
